# Reference: the supplement of paper PMC10307832
# Assays:
# Experiment in all cases: relative viability (nuclei count vs DMSO), 5 days (fraction); higher = more cells survive
# XMD13-2 + Crizotinib = compound: C1CC1C(=O)NC2=NNC3=C2C=CC(=C3)C4=CC(=CC=C4)C(=O)NC5CC5 [XMD13-2] + C[C@@H](Oc1cc(-c2cnn(C3CCNCC3)c2)cnc1N)c1c(Cl)ccc(F)c1Cl [Crizotinib] (partner 1 µM)
# In short: (§1)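 Relative viability divides the nuclei count in treated wells by that in vehicle wells. Lung cancer cell lines were seeded in 1536-well plates, dosed by pin tool the next day, and fixed and stained after 5 days in one step with final 0.05% Triton X-100, 1% formaldehyde and 1 ug/ml Hoechst. Dosing was a single drug or a fixed anchor-drug dose plus five library-drug doses (not always all listed) in √10 steps, and values are medians of duplicate plates imaged at 4×.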
# ALW-II-49-7 + Phenformin = compound: Cc1ccc(C(=O)Nc2cccc(C(F)(F)F)c2)cc1Nc1cncc(C(N)=O)c1 [ALW-II-49-7] + N=C(N)NC(=N)NCCc1ccccc1 [Phenformin] (partner 250 µM)
# In short: as §1
# Dasatinib + Luminespib = compound: Cc1nc(Nc2ncc(C(=O)Nc3c(C)cccc3Cl)s2)cc(N2CCN(CCO)CC2)n1 [Dasatinib] + CCNC(=O)c1noc(-c2cc(C(C)C)c(O)cc2O)c1-c1ccc(CN2CCOCC2)cc1 [Luminespib] (partner 0.01 µM)
# In short: as §1
# Dasatinib + Tozasertib = compound: Cc1nc(Nc2ncc(C(=O)Nc3c(C)cccc3Cl)s2)cc(N2CCN(CCO)CC2)n1 [Dasatinib] + Cc1cc(Nc2cc(N3CCN(C)CC3)nc(Sc3ccc(NC(=O)C4CC4)cc3)n2)n[nH]1 [Tozasertib] (partner 0.1 µM)
# In short: as §1
Cell Line,relative viability (XMD13-2 + Crizotinib; first compound 0.05 µM),relative viability (XMD13-2 + Crizotinib; first compound 0.1581 µM),relative viability (XMD13-2 + Crizotinib; first compound 0.5 µM),relative viability (XMD13-2 + Crizotinib; first compound 1.581 µM),relative viability (XMD13-2 + Crizotinib; first compound 5 µM),relative viability (ALW-II-49-7 + Phenformin; first compound 0.08 µM),relative viability (ALW-II-49-7 + Phenformin; first compound 0.253 µM),relative viability (ALW-II-49-7 + Phenformin; first compound 0.8 µM),relative viability (ALW-II-49-7 + Phenformin; first compound 2.53 µM),relative viability (ALW-II-49-7 + Phenformin; first compound 8 µM),relative viability (Dasatinib + Luminespib; first compound 0.005 µM),relative viability (Dasatinib + Luminespib; first compound 0.01581 µM),relative viability (Dasatinib + Luminespib; first compound 0.05 µM),relative viability (Dasatinib + Luminespib; first compound 0.1581 µM),relative viability (Dasatinib + Luminespib; first compound 0.5 µM),relative viability (Dasatinib + Tozasertib; first compound 0.005 µM),relative viability (Dasatinib + Tozasertib; first compound 0.01581 µM),relative viability (Dasatinib + Tozasertib; first compound 0.05 µM),relative viability (Dasatinib + Tozasertib; first compound 0.1581 µM),relative viability (Dasatinib + Tozasertib; first compound 0.5 µM)
201T,1,1.01,1,0.988,1.07,0.43,0.456,0.456,0.477,0.414,0.998,0.81,0.836,0.548,0.378,0.877,0.746,0.751,0.606,0.425
A549,0.994,0.736,0.721,0.664,0.824,0.19,0.125,0.117,0.0978,0.201,–,–,–,–,–,–,–,–,–,–
A-427,1.01,0.872,0.812,0.724,0.34,0.216,0.305,0.316,0.357,0.27,0.742,0.704,0.739,0.673,0.486,0.223,0.214,0.176,0.142,0.156
ABC-1,1.4,1.41,1.16,1.03,0.675,0.3,0.244,0.249,0.26,0.262,0.562,0.52,0.314,0.411,0.293,0.174,0.217,0.172,0.15,0.154
BEN,0.919,0.913,0.852,0.989,0.917,0.33,0.264,0.25,0.233,0.287,0.439,0.547,0.266,0.2,0.269,0.516,0.412,0.489,0.415,0.406
CAL-12T,0.76,0.816,0.572,0.538,0.874,0.543,0.498,0.603,0.627,0.538,0.794,0.374,0.334,0.129,0.072,0.386,0.346,0.297,0.228,0.112
COR-L23,0.746,0.51,0.765,0.653,0.759,0.461,0.448,0.426,0.462,0.363,0.698,0.531,0.7,0.461,0.299,0.199,0.159,0.173,0.119,0.109
COR-L 105,1,0.843,0.881,0.701,0.927,0.423,0.48,0.471,0.466,0.47,0.67,0.588,0.637,0.571,0.22,0.375,0.299,0.332,0.228,0.208
Calu-6,0.958,0.813,0.898,0.773,0.643,–,–,–,–,–,–,–,–,–,–,–,–,–,–,–
ChaGo-K-1,1.26,1.08,1.25,–,1.14,0.48,0.584,0.465,0.46,0.401,0.555,0.543,0.591,0.486,0.366,0.23,0.203,0.207,0.21,0.186
EBC-1,0.225,0.208,0.204,0.178,0.199,–,–,–,–,–,–,–,–,–,–,–,–,–,–,–
EKVX,1.05,1.21,1.06,0.977,1.12,0.233,0.229,0.215,0.261,0.224,0.797,0.665,0.808,0.637,0.207,0.372,0.279,0.303,0.214,0.119
EMC-BAC-2,0.818,0.79,0.795,0.745,0.36,0.426,0.513,0.505,0.454,0.338,0.978,0.93,0.942,0.558,0.44,0.271,0.205,0.226,0.179,0.164
EPLC-272H,1.02,0.76,1.09,0.802,0.25,0.29,–,0.23,0.342,0.303,0.679,0.392,0.512,0.121,0.111,0.254,0.282,0.222,0.137,0.122
H3255,0.972,0.694,0.699,0.884,0.784,0.442,0.394,0.373,0.331,0.329,0.919,0.901,0.793,0.919,0.371,0.721,0.543,0.463,0.547,0.322
HARA,1.2,1.05,1.13,1.1,0.486,0.452,0.476,0.345,0.461,0.482,0.774,0.552,0.413,0.207,0.133,0.119,0.133,0.0917,0.0528,0.0523
HCC-15,0.925,0.766,0.857,0.793,0.472,0.488,0.433,0.456,0.544,0.399,0.381,0.316,0.248,0.247,0.108,0.424,0.403,0.338,0.251,0.235
HCC-44,0.789,0.814,0.75,0.772,0.755,0.261,0.203,0.231,0.277,0.211,1.15,1.01,0.733,0.604,0.453,1.19,0.716,0.452,0.75,0.313
HCC-78,0.373,0.356,0.34,0.35,0.309,0.718,0.745,–,0.677,0.633,–,–,–,–,–,0.47,0.371,0.395,0.242,0.181
HCC-366,0.616,0.527,0.688,0.529,0.65,0.649,0.623,0.541,0.622,0.611,–,–,–,–,–,0.115,0.109,0.109,0.0407,0.0371

Cell Line,relative viability (XMD13-2 + Crizotinib; first compound 0.05 µM),relative viability (XMD13-2 + Crizotinib; first compound 0.1581 µM),relative viability (XMD13-2 + Crizotinib; first compound 0.5 µM),relative viability (XMD13-2 + Crizotinib; first compound 1.581 µM),relative viability (XMD13-2 + Crizotinib; first compound 5 µM),relative viability (ALW-II-49-7 + Phenformin; first compound 0.08 µM),relative viability (ALW-II-49-7 + Phenformin; first compound 0.253 µM),relative viability (ALW-II-49-7 + Phenformin; first compound 0.8 µM),relative viability (ALW-II-49-7 + Phenformin; first compound 2.53 µM),relative viability (ALW-II-49-7 + Phenformin; first compound 8 µM),relative viability (Dasatinib + Luminespib; first compound 0.005 µM),relative viability (Dasatinib + Luminespib; first compound 0.01581 µM),relative viability (Dasatinib + Luminespib; first compound 0.05 µM),relative viability (Dasatinib + Luminespib; first compound 0.1581 µM),relative viability (Dasatinib + Luminespib; first compound 0.5 µM),relative viability (Dasatinib + Tozasertib; first compound 0.005 µM),relative viability (Dasatinib + Tozasertib; first compound 0.01581 µM),relative viability (Dasatinib + Tozasertib; first compound 0.05 µM),relative viability (Dasatinib + Tozasertib; first compound 0.1581 µM),relative viability (Dasatinib + Tozasertib; first compound 0.5 µM)
HCC-827,0.974,0.923,0.906,0.807,0.682,0.403,0.388,0.399,0.413,0.363,0.672,0.409,0.335,0.127,0.123,0.457,0.409,0.399,0.177,0.101
HOP-62,0.871,0.889,0.933,0.939,0.439,0.585,0.598,0.611,0.696,0.429,0.853,0.858,0.92,0.648,0.485,0.387,0.372,0.393,0.315,0.242
IA-LM,0.674,0.794,0.65,0.664,0.528,–,–,–,–,–,–,–,–,–,–,–,–,–,–,–
LC-2-ad,0.468,0.449,0.467,0.443,0.48,0.478,0.555,0.58,0.638,0.531,1.1,1.11,0.86,0.774,0.376,0.421,0.366,0.315,0.271,0.249
LCLC-97TM1,0.432,0.318,0.265,0.374,0.256,0.44,0.425,0.451,0.393,0.459,0.844,0.798,0.901,0.598,0.309,0.187,0.211,0.244,0.217,0.159
LCLC-103H,1.05,1.01,1.18,1,1.14,0.306,0.343,0.281,0.288,0.335,0.83,0.88,0.733,0.52,0.275,0.485,0.461,0.453,0.3,0.129
LK-2,0.214,0.219,0.25,0.207,0.227,–,0.476,0.388,0.48,0.349,0.188,0.194,0.156,0.158,0.195,0.16,0.15,0.141,0.173,0.148
LOU-NH91,0.791,0.659,0.769,0.727,0.782,0.698,0.671,0.621,0.596,0.633,0.348,0.348,0.285,0.259,0.27,0.721,0.652,0.637,0.556,0.307
NCI-H522,–,–,–,–,–,0.678,0.667,0.687,0.576,0.732,1.16,0.913,1.08,0.775,0.923,0.568,0.483,0.539,0.466,0.437
NCI-H1299,1.02,0.954,0.99,0.948,0.904,–,–,–,–,–,–,–,–,–,–,–,–,–,–,–
NCI-H1395,–,–,–,–,–,0.438,0.512,0.419,0.475,0.428,0.684,0.627,0.663,0.443,0.363,0.819,0.713,0.723,0.555,0.4
NCI-H1563,0.91,0.898,0.77,0.852,1.02,0.65,0.71,0.67,0.683,0.606,0.546,0.466,0.495,0.423,0.405,–,–,–,–,–
NCI-H1623,–,–,–,–,–,0.566,0.504,0.574,0.565,0.564,0.414,0.401,0.49,0.412,0.319,0.447,0.329,0.442,0.351,0.363
NCI-H1648,–,–,–,–,–,–,–,–,–,–,–,–,–,–,–,0.624,0.545,0.327,0.233,0.14
NCI-H1703,1.11,0.997,0.874,0.422,0.465,–,–,–,–,–,–,–,–,–,–,–,–,–,–,–
NCI-H1792,1.22,0.929,0.979,0.869,1.12,–,–,0.228,0.147,0.258,0.467,0.306,0.244,0.249,0.2,–,–,–,–,–
NCI-H1793,–,–,–,–,–,0.41,0.35,0.258,0.302,0.297,0.164,0.14,0.148,0.128,0.104,0.231,0.19,0.181,0.146,0.147
NCI-H2342,–,–,–,–,–,0.572,0.602,0.635,0.497,0.564,0.769,0.548,0.439,0.437,0.281,0.524,0.427,0.333,0.356,0.218
SW 900,–,–,–,–,–,0.397,0.542,0.549,0.703,0.534,0.141,0.154,0.159,0.111,0.103,0.609,0.564,0.607,0.46,0.359
